# From paper PMC8465290, “Zoledronic Acid as a Novel Dual Blocker of KIR6.1/2-SUR2 Subunits of ATP-Sensitive K^+ Channels: Role in the Adverse Drug Reactions” (Pharmaceutics, 2021)
# Experiments:
# [1] = tested on: KATP channels of femora primary bone cells; assay: KATP currents in cell-attached patches of femora (long bone) primary bone cells; type: cell-based, mice; conditions: for IC50 / Imax % / Slope: Femora primary bone cells, cell-attached patches
# Procedure: (§1) The culture of primary bone cells from adult mice was obtained from long bones (tibia and femur) and calvaria, as previously described. Bones were collected, cleaned, and flushed for removing the internal bone marrow cells. Small bone pieces of around 1 mm^3 were treated with trypsin-EDTA 0.25% (w/v) for 1 h and with 0.2% collagenase solution for an additional hour in a shaking water bath to remove all remaining soft tissue and adherent cells. Clean bone pieces have been cultured in basal medium enriched with 50 µg/mL of ascorbic acid. Osteoblasts from femora (Figure S1A, Supplementary Material) and calvaria chips (Figure S1B) were positive to Alizarin red staining (Figure S1C). The marker of osteoblasts was positive, as tested by the PCR expression analysis on cell pellets (Figure S1D).
# (§2) The solutions for whole-cell and cell attached patches were as follows. The pipette solution contained 132 mM KCl, 1 mM ethylene glycol-bis(β-aminoethylether)-N,N,N′,N′-tetraaceticacid (EGTA), 10 mM NaCl, 2 mM MgCl2, 10 mM HEPES, 1 mM Na2ATP, and 0.3 mM Na2GDP (pH = 7.2). The bath solution contained 142 mM NaCl, 2.8 mM KCl, 1 mM CaCl2, 1 mM MgCl2, 11 mM glucose, and 10 mM HEPES (pH = 7.4).
# (§3) The whole-cell and cell-attached patch-clamp experiments were performed in asymmetrical K^+ ion concentration in physiological conditions using pipettes with the resistance of 3–5 MΩ.
# (§4) Drug actions on the channel currents recorded during instantaneous I/V relationships were investigated by applying a depolarization protocol, in response to voltage pulses from −180 mV to +100 mV (Vm) in 20 mV steps. Currents were expressed as densities (pA/pF) to control for cell size/capacitance differences. All experiments were performed at room temperature (20–22 °C) and sampled at 2 kHz (filter = 1 kHz) using an Axopatch-1D amplifier equipped with a CV-4 headstage (Axon Instruments; Foster City, CA, USA). Drug solutions were applied using a fast perfusion system during the continuous monitoring of the seal resistance at 18–22 °C room temperature in excised patches. In whole-cell and cell-attached patch-clamp experiments, before recording, the cells were equilibrated for 10 s with the solution. Data acquisition and analysis were performed using pCLAMP 10 software suite (Axon Instruments; Foster City, CA, USA), as previously described. Seal resistance was continuously monitored during the experiment.
# The percentage of KATP current inhibition induced by ZOL was calculated as (I CTRL-I drug)/(I CTRL-I BaCl2) × −100. The concentration response data of ZOL against different KATP channel currents were fitted by an algorithm using the non-linear dynamic fitting routine of Sigma Plot, 10.0.
# [2] = tested on: KATP channels of calvaria primary bone cells; assay: KATP currents in cell-attached patches of calvaria primary bone cells; type: cell-based, mice
# Procedure: as §1, §2, §3
# Drug actions on the channel currents recorded during instantaneous I/V relationships were investigated by applying a depolarization protocol, in response to voltage pulses from −180 mV to +100 mV (Vm) in 20 mV steps. Currents were expressed as densities (pA/pF) to control for cell size/capacitance differences. All experiments were performed at room temperature (20–22 °C) and sampled at 2 kHz (filter = 1 kHz) using an Axopatch-1D amplifier equipped with a CV-4 headstage (Axon Instruments; Foster City, CA, USA). […] Seal resistance was continuously monitored during the experiment.
# (§5) The percentage of KATP current inhibition induced by ZOL was calculated as (I CTRL-I drug)/(I CTRL-I BaCl2) × −100. […]
# [3] = target: T1, KATP channels of Extensor digitorum longus (EDL) muscle fibers (Mus musculus, UniProt P70170+Q61743); assay: KATP currents in excised macro-patches from EDL muscle fibers (patch-clamp); type: cell-based, mice; conditions: excised macropatches
# T1 construct: The KATP currents of native skeletal muscle fibers were recorded in excised macro patches; from tissue; host or cells: isolated Extensor digitorum longus muscle fibers of C57BL mice
# Excerpt: (§6) In accordance with 3R RULE (DIRECTIVE 2010/63/EU) Replace, Reduce, Refine, bone and skeletal muscle were collected from wild-type male mice C57BL sacrificed for other scientific purposes (Ethic Committee name, Organization for Animal Health O.P.B.A. University of Bari, Italy, project: 7282018PR). The fibers were enzymatically isolated from Extensor digitorum longus (EDL) and Soleus (SOL) muscles, as previously described.
# (§7) The solutions for excised patch experiments on isolated muscle fibers were as follows. The patch-pipette solution contained 150 mM KCl, 2 mM CaCl2, and 1 mM Mops (pH 7.2); the bath solution contained 150 mM KCl, 5 mM EGTA, and 10 mM Mops (pH 7.2).
# (§8) The KATP currents of native skeletal muscle fibers were recorded in excised macro patches using pipettes of 0.9–1.2 MΩ of resistance on isolated skeletal muscle fibers in symmetrical 150 mM K^+ ions concentrations on both sides of the membrane during pulse going from 0 mV to −60 mV (Vm), as previously described.
# as §4, with “Data acquisition and analysis were performed using pCLAMP 10 software suite (Axon Instruments; Foster City, CA, USA), as previously described.” left out
# as §5
# [4] = tested on: KATP channels of Soleus (SOL) muscle fibers; assay: KATP currents in excised macro-patches from SOL muscle fibers (patch-clamp); type: cell-based, mice; conditions: excised macropatches
# Excerpt: as §6, §7, §8
# as §4, with “Data acquisition and analysis were performed using pCLAMP 10 software suite (Axon Instruments; Foster City, CA, USA), as previously described.” left out
# as §5
# KIR6.2-SUR2A = target: T2, KIR6.2-SUR2A (Homo sapiens, UniProt O60706+Q14654); assay: Whole-cell current of recombinant KIR6.2-SUR2A in Hek293 cells; type: cell-based
# T2 construct: expressed in transfected cells; host or cells: Hek293
# T2 sequence (Q14654 whole entry): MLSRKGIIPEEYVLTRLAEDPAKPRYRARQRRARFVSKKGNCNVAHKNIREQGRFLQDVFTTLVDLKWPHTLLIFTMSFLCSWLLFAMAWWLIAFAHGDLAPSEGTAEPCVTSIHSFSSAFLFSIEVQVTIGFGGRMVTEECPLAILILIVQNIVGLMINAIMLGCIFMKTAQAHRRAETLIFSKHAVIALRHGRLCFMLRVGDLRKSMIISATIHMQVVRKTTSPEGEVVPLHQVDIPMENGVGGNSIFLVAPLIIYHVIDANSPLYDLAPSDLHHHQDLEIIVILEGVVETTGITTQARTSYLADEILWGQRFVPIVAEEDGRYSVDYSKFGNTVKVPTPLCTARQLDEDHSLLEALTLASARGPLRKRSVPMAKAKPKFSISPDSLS
# T2 sequence (O60706 whole entry): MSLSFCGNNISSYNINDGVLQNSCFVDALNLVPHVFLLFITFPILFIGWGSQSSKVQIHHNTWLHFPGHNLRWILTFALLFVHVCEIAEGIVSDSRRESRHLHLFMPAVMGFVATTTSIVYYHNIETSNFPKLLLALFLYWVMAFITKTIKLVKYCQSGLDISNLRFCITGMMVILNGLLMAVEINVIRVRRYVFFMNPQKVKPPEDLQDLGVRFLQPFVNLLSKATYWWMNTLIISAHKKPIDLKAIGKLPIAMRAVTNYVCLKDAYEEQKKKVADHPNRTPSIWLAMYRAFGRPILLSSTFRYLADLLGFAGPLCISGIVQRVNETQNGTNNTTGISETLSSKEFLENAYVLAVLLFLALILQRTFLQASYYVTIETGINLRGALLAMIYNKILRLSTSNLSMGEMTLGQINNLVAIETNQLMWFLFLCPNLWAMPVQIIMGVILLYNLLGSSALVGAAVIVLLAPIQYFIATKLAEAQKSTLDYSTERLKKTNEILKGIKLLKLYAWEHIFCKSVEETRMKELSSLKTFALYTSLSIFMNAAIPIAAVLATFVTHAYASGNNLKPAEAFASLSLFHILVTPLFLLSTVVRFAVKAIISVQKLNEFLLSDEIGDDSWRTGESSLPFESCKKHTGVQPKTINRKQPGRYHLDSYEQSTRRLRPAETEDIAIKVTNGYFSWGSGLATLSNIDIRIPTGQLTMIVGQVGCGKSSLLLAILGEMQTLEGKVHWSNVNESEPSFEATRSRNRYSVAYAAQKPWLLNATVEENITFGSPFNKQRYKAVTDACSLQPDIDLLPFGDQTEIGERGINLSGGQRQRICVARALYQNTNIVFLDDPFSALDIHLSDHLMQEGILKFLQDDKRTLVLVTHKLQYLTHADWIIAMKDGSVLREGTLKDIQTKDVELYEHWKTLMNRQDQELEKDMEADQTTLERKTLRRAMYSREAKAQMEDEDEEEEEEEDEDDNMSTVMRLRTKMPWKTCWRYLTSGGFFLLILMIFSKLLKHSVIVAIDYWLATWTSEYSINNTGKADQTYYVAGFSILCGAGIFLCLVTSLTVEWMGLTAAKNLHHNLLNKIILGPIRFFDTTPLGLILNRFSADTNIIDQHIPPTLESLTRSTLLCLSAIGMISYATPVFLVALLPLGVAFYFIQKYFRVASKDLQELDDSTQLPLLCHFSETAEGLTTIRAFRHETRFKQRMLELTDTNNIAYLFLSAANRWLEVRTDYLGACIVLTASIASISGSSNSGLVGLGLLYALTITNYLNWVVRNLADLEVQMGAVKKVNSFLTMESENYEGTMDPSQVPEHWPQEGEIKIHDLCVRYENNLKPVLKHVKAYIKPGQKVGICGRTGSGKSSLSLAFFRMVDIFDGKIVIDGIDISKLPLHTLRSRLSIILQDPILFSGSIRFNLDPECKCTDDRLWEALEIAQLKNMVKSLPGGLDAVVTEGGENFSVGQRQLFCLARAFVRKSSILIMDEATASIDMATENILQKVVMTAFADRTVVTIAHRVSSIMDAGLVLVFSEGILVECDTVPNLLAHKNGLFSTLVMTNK
# Procedure: (§9) For experiments on recombinant channel subunits, Hek293 cells were transfected with the relevant plasmids, as previously described.
# as §2
# (§10) CaCl2 was added to the pipette solutions to give a free Ca^2+ ion concentration of 1.6 × 10^−6 M in whole-cell experiments. The calculation of the free Ca^2+ ion concentration in the pipette was performed using the MaxChelator software (Stanford University; Stanford, CA, USA).
# as §3
# as §4, with “Data acquisition and analysis were performed using pCLAMP 10 software suite (Axon Instruments; Foster City, CA, USA), as previously described.” left out
# as §5
# KIR6.1-SUR2B = target: T3, KIR6.1-SUR2B (Homo sapiens, UniProt O60706+Q15842); assay: Whole-cell current of recombinant KIR6.1-SUR2B in Hek293 cells; type: cell-based
# T3 construct: expressed in transfected cells; host or cells: Hek293
# Procedure: as §9, §2, §10, §3
# as §4, with “Data acquisition and analysis were performed using pCLAMP 10 software suite (Axon Instruments; Foster City, CA, USA), as previously described.” left out
# as §5
# KIR6.1-SUR1 = target: T4, KIR6.1-SUR1 (Homo sapiens, UniProt Q09428+Q15842); assay: Whole-cell current of recombinant KIR6.1-SUR1 in Hek293 cells; type: cell-based; conditions: Hek293 cells KIR6.1-SUR1, whole-cell, −60 mV
# T4 construct: expressed in transfected cells; host or cells: Hek293
# T4 sequence (Q15842 whole entry): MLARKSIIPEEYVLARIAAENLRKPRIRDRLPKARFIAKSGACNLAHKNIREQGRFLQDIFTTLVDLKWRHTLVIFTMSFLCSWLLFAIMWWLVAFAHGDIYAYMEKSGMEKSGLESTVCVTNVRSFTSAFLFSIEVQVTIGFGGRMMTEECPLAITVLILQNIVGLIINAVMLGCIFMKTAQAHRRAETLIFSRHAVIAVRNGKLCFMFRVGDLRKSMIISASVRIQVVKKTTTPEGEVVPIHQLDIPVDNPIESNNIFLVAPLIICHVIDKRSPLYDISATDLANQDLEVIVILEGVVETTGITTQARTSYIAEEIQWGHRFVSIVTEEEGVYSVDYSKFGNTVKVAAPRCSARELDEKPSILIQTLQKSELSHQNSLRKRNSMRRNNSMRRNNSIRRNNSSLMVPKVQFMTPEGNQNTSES
# T4 sequence (Q09428 whole entry): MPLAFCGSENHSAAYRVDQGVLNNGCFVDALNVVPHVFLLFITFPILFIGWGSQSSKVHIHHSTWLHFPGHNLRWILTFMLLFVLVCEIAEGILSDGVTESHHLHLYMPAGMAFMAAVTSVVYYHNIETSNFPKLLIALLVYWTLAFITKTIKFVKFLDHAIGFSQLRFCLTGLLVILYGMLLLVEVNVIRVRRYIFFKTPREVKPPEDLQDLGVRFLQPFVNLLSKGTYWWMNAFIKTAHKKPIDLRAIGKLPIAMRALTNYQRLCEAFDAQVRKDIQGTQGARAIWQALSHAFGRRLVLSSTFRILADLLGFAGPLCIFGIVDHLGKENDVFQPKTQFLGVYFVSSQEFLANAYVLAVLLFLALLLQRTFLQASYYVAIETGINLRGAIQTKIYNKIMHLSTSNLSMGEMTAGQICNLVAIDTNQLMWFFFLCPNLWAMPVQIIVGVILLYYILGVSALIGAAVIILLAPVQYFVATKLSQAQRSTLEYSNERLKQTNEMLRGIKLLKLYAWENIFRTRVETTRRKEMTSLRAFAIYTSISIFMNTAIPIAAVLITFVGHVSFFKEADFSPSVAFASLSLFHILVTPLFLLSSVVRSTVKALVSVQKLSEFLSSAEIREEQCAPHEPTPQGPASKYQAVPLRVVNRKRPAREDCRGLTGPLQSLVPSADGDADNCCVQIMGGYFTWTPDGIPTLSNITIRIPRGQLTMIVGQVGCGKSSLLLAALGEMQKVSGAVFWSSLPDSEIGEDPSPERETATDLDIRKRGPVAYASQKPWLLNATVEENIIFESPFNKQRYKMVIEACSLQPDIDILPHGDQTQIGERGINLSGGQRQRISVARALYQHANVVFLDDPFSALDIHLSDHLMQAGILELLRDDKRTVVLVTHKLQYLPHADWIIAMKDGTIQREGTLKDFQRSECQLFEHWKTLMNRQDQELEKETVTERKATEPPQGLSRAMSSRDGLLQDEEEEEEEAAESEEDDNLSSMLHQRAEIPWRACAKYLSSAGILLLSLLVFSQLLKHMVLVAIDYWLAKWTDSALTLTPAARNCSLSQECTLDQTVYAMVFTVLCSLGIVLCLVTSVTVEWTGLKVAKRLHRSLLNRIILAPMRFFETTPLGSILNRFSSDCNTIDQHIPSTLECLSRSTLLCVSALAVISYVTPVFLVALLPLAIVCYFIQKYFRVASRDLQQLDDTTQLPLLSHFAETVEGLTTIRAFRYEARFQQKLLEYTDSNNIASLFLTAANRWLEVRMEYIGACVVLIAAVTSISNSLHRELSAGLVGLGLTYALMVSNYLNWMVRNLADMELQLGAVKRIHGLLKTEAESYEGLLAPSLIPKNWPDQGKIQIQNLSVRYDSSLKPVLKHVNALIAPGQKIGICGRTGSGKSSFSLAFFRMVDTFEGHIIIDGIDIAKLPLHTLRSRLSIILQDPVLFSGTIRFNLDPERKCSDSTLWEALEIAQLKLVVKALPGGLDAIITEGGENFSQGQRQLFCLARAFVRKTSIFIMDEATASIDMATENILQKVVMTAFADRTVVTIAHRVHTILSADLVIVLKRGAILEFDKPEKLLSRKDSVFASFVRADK
# Procedure: as §9, §2
# CaCl2 was added to the pipette solutions to give a free Ca^2+ ion concentration of 1.6 × 10^−6 M in whole-cell experiments. The calculation of the free Ca^2+ ion concentration in the pipette was performed using the MaxChelator software (Stanford University; Stanford, CA, USA). […]
# Drug actions on the channel currents recorded during instantaneous I/V relationships were investigated by applying a depolarization protocol, in response to voltage pulses from −180 mV to +100 mV (Vm) in 20 mV steps. Currents were expressed as densities (pA/pF) to control for cell size/capacitance differences. […] Seal resistance was continuously monitored during the experiment.
# as §5
# KIR6.2-SUR1 = target: T5, KIR6.2-SUR1 (Homo sapiens, UniProt Q09428+Q14654); assay: Whole-cell current of recombinant KIR6.2-SUR1 in Hek293 cells; type: cell-based; conditions: Hek293 cells KIR6.2-SUR1, whole-cell
# T5 construct: expressed in transfected cells; host or cells: Hek293
# T5 sequence (Q14654 whole entry): as the sequence (Q14654 whole entry) above
# T5 sequence (Q09428 whole entry): as the sequence (Q09428 whole entry) above
# Procedure: as §9, §2, §10, §3
# as §4, with “Data acquisition and analysis were performed using pCLAMP 10 software suite (Axon Instruments; Foster City, CA, USA), as previously described.” left out
# as §5
# [5] = Pharmacovigilance analysis of A.D.R. in EudraVigilance database; parameters: species or system human
# Excerpt: All coding preferred terms per System Organ Class (S.O.C.) were screened in the EudraVigilance database (http://www.adrreports.eu/ accessed on 1 May 2021), and those potentially associated with KATP channel blocking actions were reported and subject to analysis.
# The data were extracted from EudraVigilance, collected, and analyzed on Microsoft 365 Excel software package (Microsoft 10.00). The not specified category was not included in the calculation. The duplication of a specific report per S.O.C. was evaluated manually and excluded from the analysis.
# The Proportional Reporting Ratio (P.R.R.) was calculated using the following equation: a/(a+c)/b/(b + d) where a is the reaction of interest to a given drug of interest, b is the reaction of interest for all other drugs in the class, c are all other reactions to a given drug of interest, and d are all other reactions to all other drugs in the class. Signal definition: P.R.R. ≥ 2, a minimum of three ratios/cases for the reaction of interest, X^2 ≥ 4. No signal is identified if P.R.R. is = 1 [47].
# [6] = parameters: method as in EudraVigilance database; conditions: cited from earlier work
# [7] = parameters: method as in PMID 24330023; conditions: multiple myeloma patients ref 9; cited from earlier work
# [8] = musculoskeletal and connective tissues disorders S.O.C.
# [9] = within the KATP channel blockers
# [10] = all ages ref EudraVigilance database
smiles,measurement,setting,value
"COc1ccc(Cl)cc1C(=O)NCCc1ccc(S(=O)(=O)NC(=O)NC2CCCCC2)cc1 [Glibenclamide, 5-chloro-N-(2-{4-[(cyclohexylcarbamoyl)sulfamoyl]phenyl}ethyl)-2-methoxybenzamide]",inhibition of KATP currents in C-A patches (in words),"[1]; C-A patches, nanomolar concentrations, Figure 1C",markedly reduced
same,IC50,[1],5.07 nM
same,Imax %,[1],−88.32 ± 21 n = 13 cells %
same,Slope,[1],0.4 ± 0.08
same,IC50,[2],10.2 nM
same,Imax %,[2],−93 ± 14 n = 18 cells %
same,Slope,[2],0.5 ± 0.03
O=P(O)(O)C(O)(Cn1ccnc1)P(=O)(O)O [Zoledronic acid],IC50,[3],1200 nM
same,Slope,[3]; concentration-response fit,0.38 ± 0.07
same,Imax %,"[3]; −60 mV, symmetrical 150 mM K+",−100.1 ± 9.3 n = 17 fibers %
same,IC50,[4],0.21 nM
same,Slope,[4]; concentration-response fit,0.29 ± 0.05
same,Imax %,"[4]; −60 mV, symmetrical 150 mM K+",−99.4 ± 5 n = 21 fibers %
same,IC50,[1],0.16 nM
same,Imax %,[1],−104.8 ± 8.7 n = 21 cells %
same,Slope,[1],0.31 ± 0.07
same,IC50,KIR6.2-SUR2A,7100 nM
same,Slope,KIR6.2-SUR2A,* 0.12 ± 0.7
same,Imax %,KIR6.2-SUR2A; −60 mV,−83.7 ± 1.2 n = 15 cells %
same,IC50,KIR6.1-SUR2B,0.39 nM
same,Slope,KIR6.1-SUR2B,0.59 ± 0.04
same,Imax %,KIR6.1-SUR2B; −60 mV,−94 ± 4.8 n = 15 cells %
same,Imax %,KIR6.1-SUR1,* −40 ± 8.8 n = 3 cells %
same,IC50,KIR6.2-SUR1,21000 nM
same,Slope,KIR6.2-SUR1,* 0.18 ± 0.09
same,Imax %,KIR6.2-SUR1; −60 mV,* −60.13 ± 4.1 n = 15 cells %
same,"hypoglycemia, % of the A.D.R. per S.O.C.",[5],1.63%
same,"arrhythmia, % of cardiac A.D.R.",[5]; cardiac A.D.R.,8.1%
same,"atrial fibrillation, % of cardiac A.D.R.",[5]; cardiac A.D.R.,17.9%
same,"congestive heart failure, % of cardiac A.D.R.",[5]; cardiac A.D.R.,12.6%
same,"myocardial infarction, % of cardiac A.D.R.",[5]; cardiac A.D.R.,12%
same,"palpitations, % of cardiac A.D.R.",[5]; cardiac A.D.R.,13.2%
same,"sinus tachycardia, % of cardiac A.D.R.",[5]; cardiac A.D.R.,5.3%
same,"tachycardia, % of cardiac A.D.R.",[5]; cardiac A.D.R.,12.2%
same,"arthralgia, % of the A.D.R.",[5]; [8],16%
same,"muscular weakness, % of the A.D.R. per S.O.C.",[5]; [8],2.7%
same,"myalgia, % of the A.D.R.",[5]; [8],10%
same,"osteonecrosis of the jaw, % of the total A.D.R.",[5]; [8],47.9%
same,"blood pressure increase, % of A.D.R.",[5]; vascular S.O.C.,16%
same,"hypertension, % of A.D.R.",[5]; vascular S.O.C.,25%
same,"hypotension, % of A.D.R.",[5]; vascular S.O.C.,18%
same,Proportional Reporting Ratio (P.R.R.) arrhythmias,[5]; [9],≥ 2
same,Proportional Reporting Ratio (P.R.R.) atrial fibrillation,[5]; [9],≥ 2
same,Proportional Reporting Ratio (P.R.R.) diarrhea,[5]; [9],≥ 2
same,Proportional Reporting Ratio (P.R.R.) hypertension,[5]; [9],≥ 2
same,Proportional Reporting Ratio (P.R.R.) hypoglycemia,[5]; [9],lower risk
same,Proportional Reporting Ratio (P.R.R.) muscular weakness,[5]; [9],≥ 2
same,Proportional Reporting Ratio (P.R.R.) myalgia,[5]; [9],≥ 2
same,Proportional Reporting Ratio (P.R.R.) osteonecrosis of jaw,[5]; [9],≥ 2
same,Proportional Reporting Ratio (P.R.R.) rhabdomyolysis,[5]; [9],lower risk
same,"osteonecrosis of the jaw, affected females",[6]; [10],4792
same,"osteonecrosis of the jaw, affected males",[6]; [10],3184
same,adverse reaction cases reported,"[6]; all indications, up to 1 May 2021 ref EudraVigilance database","35,201 cases"
same,"arrhythmia, number of reports",[6]; cardiac A.D.R. ref EudraVigilance database,197
same,median overall survival,[7],52 months
Cc1ccc(S(=O)(=O)NC(=O)NN2CC3CCCC3C2)cc1 (centres unmarked) [gliclazide],Proportional Reporting Ratio (P.R.R.) muscular weakness,[5]; [9],≥ 2
